Assay results reported in US6541463B1, “Inhibitors of type 5 and type 3 17β-hydroxysteroid dehydrogenase and methods for their use” (Endorecherche, Inc., priority 1998, dated 2003).

Target: T1, glucocorticoid receptor (Rattus norvegicus, UniProt P06536)
T1 construct: from tissue; host or cells: liver cytosol of male Sprague-Dawley rats
T1 sequence (P06536 1-795): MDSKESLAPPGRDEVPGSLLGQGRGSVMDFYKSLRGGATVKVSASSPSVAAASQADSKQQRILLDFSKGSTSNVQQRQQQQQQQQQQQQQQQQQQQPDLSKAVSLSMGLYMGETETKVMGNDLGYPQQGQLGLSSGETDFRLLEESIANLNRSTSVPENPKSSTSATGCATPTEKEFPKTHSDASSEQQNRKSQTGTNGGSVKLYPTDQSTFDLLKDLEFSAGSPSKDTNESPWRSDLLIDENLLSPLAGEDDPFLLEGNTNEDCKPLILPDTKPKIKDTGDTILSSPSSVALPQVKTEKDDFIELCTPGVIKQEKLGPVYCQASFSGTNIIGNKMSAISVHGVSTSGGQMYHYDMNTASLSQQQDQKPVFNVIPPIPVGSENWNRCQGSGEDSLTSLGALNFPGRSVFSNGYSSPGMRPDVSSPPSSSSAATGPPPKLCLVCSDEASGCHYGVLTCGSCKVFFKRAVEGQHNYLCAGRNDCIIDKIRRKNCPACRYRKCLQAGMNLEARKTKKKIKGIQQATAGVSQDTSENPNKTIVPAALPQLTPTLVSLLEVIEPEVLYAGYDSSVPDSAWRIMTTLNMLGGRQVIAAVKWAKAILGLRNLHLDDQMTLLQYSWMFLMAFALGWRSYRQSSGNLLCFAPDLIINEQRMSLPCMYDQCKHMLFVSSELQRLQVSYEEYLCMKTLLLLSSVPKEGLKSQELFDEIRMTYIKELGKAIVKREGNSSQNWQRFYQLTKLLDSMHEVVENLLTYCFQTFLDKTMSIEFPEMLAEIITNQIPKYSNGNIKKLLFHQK
Experiment: Glucocorticoid receptor assay: inhibition of [3H]-dexamethasone binding, liver cytosol
Conditions: for inhibition at 1 µM: read-out: % Inhibition Glucocorticold Receptor E^−6; for inhibition at 0.01 µM: read-out: % Inhibition Glucocorticold Receptor E^−8
Procedure: The manner in which the percentage of inhibition is determined is described in “Other Tests; F-Glucocorticoid Receptor Assay”.
[6,7-^3H(N)]-Dexamethasone (39 Ci/mmol) was purchased from New England Nuclear (Lachine, Québec, Canada) while unlabeled dexametasone was obtained from Steraloids (Wilton, N.H.). All other chemicals were of analytical grade.
Stock solutions of the unlabeled steroids were kept at 4° C. in ethanol. The desired steroid solutions were then prepared by appropriate dilution in buffer B (10 mM Tris-HCl, 1.5 mM EDTA, 10 mM α-monothioglycerol, pH 7.4) containing 30% ethanol.
Male Sprague-Dawley rats weighing 200-300 g were obtained from Charles-River Inc. (St-Constant, Québec, Canada). The rats were killed by cervical dislocation and the liver were rapidly removed, dissected free from adhering tissue and frozen on dry-ice. Tissues were kept at −80° C. until use.
All procedures were performed at 4° C. Tissues were eminced and homogenized in 10 vol (w/v) of buffer A (25 mM Tris-HCl, 1.5 mM EDTA, 10 mM α-monothioglycerol, 10% glycerol, 10 mM sodium molybdate, pH 7.4) using a Polytron PT-10 homogenizer (Brinkmann Instruments, Canada) at a setting of 5 for two periods of 10 sec, with intervals of 10 sec for cooling. The homogenate was then centrifuged at 105,000×g for 90 min. The supernatant was used immediately for assay.
Glucocorticoid binding was measured using the dextran-coated charcoal adsorption technique. Incubations were performed at 0-4° C. for 16-18 h using 100 μl of cytosol, 100 μl of [^3H]-Dexamethasone (5 nM final) and 100 μl of unlabeled compounds at the indicated concentrations. Each concentration was done in triplicate. Assay was ended with 300 μl of DCC (2.5% Norit A and 0.25% Dextran T-70 in Buffer B). After 10 min of incubation, tubes were centrifuged at 2,000×g for 10 min. and decanted in vials with 6 ml of BCS liquid scintillation (New England Nuclear, Dupont). The radioactivity was measured in a Beckman counter at a counting efficiency of 35%.

CC1(C)CCC2(CCC3C4CCc5cc(OCCN6CCCCC6)ccc5C4CCC32C)OC1=O [EM-1390-CS, 3-(N-piperidyl-ethyl)-1,3,5(10)-estratrien-17(R)-spiro-2′-(5′,5′-dimethyl-6′-oxo)-tetrahydropyran]
inhibition at 1 µM (Table 4′, E^−6): 0%
inhibition at 0.01 µM (Table 4′, E^−8): 2%

CC1(C)CCC2(CCC3C4CCc5c(cc(Cl)c(O)c5Cl)C4CCC32C)OC1=O (stereo not shown) [EM-1391-CS]
inhibition at 1 µM (Table 4′, E^−6): 2%
inhibition at 0.01 µM (Table 4′, E^−8): 0%

CC1(C)CCC2(CCC3C4CCc5c(cc(Cl)c(OS(C)(=O)=O)c5Cl)C4CCC32C)OC1=O (stereo not shown) [EM-1392-CS]
inhibition at 1 µM (Table 4′, E^−6): 8%
inhibition at 0.01 µM (Table 4′, E^−8): 0%

COc1ccc2c(c1)C(=O)CC1C2CC[C@@]2(C)C1CC[C@@]21CCC(C)(C)C(=O)O1 (stereo partly shown) [EM-1394]
inhibition at 1 µM (Table 4′, E^−6): 2%
inhibition at 0.01 µM (Table 4′, E^−8): 3%

COCCOc1cc2c(cc1C#N)C1CC[C@@]3(C)C(CC[C@@]34CCC(C)(C)C(=O)O4)C1CC2 (stereo partly shown) [EM-1396]
inhibition at 1 µM (Table 4′, E^−6): 1%
inhibition at 0.01 µM (Table 4′, E^−8): 0%

CC1(C)CC[C@@]2(CCC3C4CCc5cc(C(=O)O)ccc5C4CC[C@@]32C)OC1=O (stereo partly drawn) [EM-1401, 3-Carboxy-1,3,5(10)-estratrien-17(R)-spiro-2′-(5′,5′-dimethyl-6′-oxo)tetrahydropyran]
inhibition at 1 µM (Table 4′, E^−6): 2%
inhibition at 0.01 µM (Table 4′, E^−8): 4%

COCCOc1cc2c(cc1C(=O)OC)C1CC[C@@]3(C)C(CC[C@@]34CCC(C)(C)C(=O)O4)C1CC2 (stereo partly drawn) [EM-1402-CS, 2-Carbomethoxy-3-(2″-methoxyethyloxy)-1,3,5(10)-estratrien 17(R)-spiro-2′-(5′,5′-dimethyl-6′-oxo)tetrahydropyran]
inhibition at 1 µM (Table 4′, E^−6): 7%
inhibition at 0.01 µM (Table 4′, E^−8): 4%

CN(C)C(=O)c1ccc2c(c1)CCC1C2CCC2(C)C1CCC21CCC(C)(C)C(=O)O1 (stereo not shown) [EM-1403]
inhibition at 1 µM (Table 4′, E^−6): 0%
inhibition at 0.01 µM (Table 4′, E^−8): 0%

CC1(C)CC[C@@]2(CCC3C4CCc5cc(C(N)=O)ccc5C4CCC32C)OC1=O (stereo partly shown) [EM-1404]
inhibition at 1 µM (Table 4′, E^−6): 0%
inhibition at 0.01 µM (Table 4′, E^−8): 0%

COCCOc1cc2c(cc1C(=O)O)C1CCC3(C)C(CCC34CCC(C)(C)C(=O)O4)C1CC2 [EM-1405, 2-Carboxy-3-(2″-methoxyethyloxy)-1,3,5(10)-estratrien-17(R)-spiro-2′-(5′,5′-dimethyl-6′-oxo)tetrahydropyran]
inhibition at 1 µM (Table 4′, E^−6): 0%
inhibition at 0.01 µM (Table 4′, E^−8): 0%

CC1(C)CC[C@@]2(CCC3C4CCc5cc6oncc6cc5C4CC[C@@]32C)OC1=O (stereo partly drawn) [EM-1407-CS, 1,3,5(10)-estratrien-(2,3-oximino)-17(R)-spiro-2′-(5′,5′-dimethyl-6′-oxo)tetrahydropyran]
inhibition at 1 µM (Table 4′, E^−6): 0%
inhibition at 0.01 µM (Table 4′, E^−8): 0%

COCCOc1ccc2c(c1)C(=O)CC1C2CCC2(C)C1CCC21CCC(C)(C)C(=O)O1 (stereo not shown) [EM-1408-CS]
inhibition at 1 µM (Table 4′, E^−6): 0%
inhibition at 0.01 µM (Table 4′, E^−8): 0%

COc1cc2c(cc1C)C1CCC3(C)C(CCC34CCC(C)(C)C(=O)O4)C1CC2 (stereo not shown) [EM-1412-CS]
inhibition at 1 µM (Table 4′, E^−6): 2%
inhibition at 0.01 µM (Table 4′, E^−8): 0%

COCCOc1cc2c(cc1C(N)=O)C1CC[C@@]3(C)C(CC[C@@]34CCC(C)(C)C(=O)O4)C1CC2 (stereo partly drawn) [EM-1424, 2-Carbamoyl-3-(2″-methoxyethyloxy)-1,3,5(10)-estratrien 17(R)-spiro-2′-(5′,5′-dimethyl-6′-oxo)tetrahydropyran]
inhibition at 1 µM (Table 4′, E^−6): 0%
inhibition at 0.01 µM (Table 4′, E^−8): 0%

COCCOc1cc2c(cc1C(F)(F)F)[C@H]1CC[C@@]3(C)[C@@H](CC[C@@]34CCC(C)(C)C(=O)O4)[C@@H]1CC2 [EM-1438, 3-(2′-Methoxyethoxy)-2-trifluoromethyl-1,3,5(10)-estratrien-17(R)-spiro-2′-(5′,5′-dimethyl-6′-oxo)tetrahydropyran]
% Inhibition Glucocorticold Receptor E^−6 (Table 4′, E^−6): 0%
% Inhibition Glucocorticold Receptor E^−8 (Table 4′, E^−8): 1%

CC(=O)O[C@]1(C(C)=O)CCC2C3C=C(C)C4=CC(=O)CC[C@]4(C)C3CC[C@@]21C (stereo partly shown) [megestrol acetate, reference compound]
% Inhibition Glucocorticoid Receptor (* E^−5): 98* %
% Inhibition Glucocorticoid Receptor (* E^−7): 17* %
% Inhibition Glucocorticoid Receptor (E^−6): 82%
% Inhibition Glucocorticoid Receptor (E^−8): 0%
